{
  "source": "paper PMC11110727",
  "about": "“Exploiting thiol-functionalized benzosiloxaboroles for achieving diverse substitution patterns – synthesis, characterization and biological evaluation of promising antibacterial agents” (RSC Medicinal Chemistry, 2024)",
  "key": {"[1]": {"test_system": "Human normal lung fibroblasts MRC-5", "experiment": "MTT-based viability (cytotoxicity) assay", "conditions": "Homo sapiens, MRC5, 48 h", "procedure": "To evaluate the cytotoxic effect of the tested compounds, an MTT-based assay was performed. […] Moreover, based on available IC50 and MIC (for standard and clinical S. aureus MRSA strains) values, the selectivity index (SI) was calculated for several compounds as the IC50/MIC ratio (Table 5).[60]\nMRC-5 pd30 human fibroblasts (ECACC) were cultured in MEME, Minimum Essential Medium Eagle (Merck), supplemented with 10% fetal bovine serum (Merck), 2 mM L-glutamine, antibiotics (100 U mL^−1 penicillin, 100 μg mL^−1 streptomycin, Merck) and 1% non-essential amino acids (Merck). Cells were grown in 75 cm^2 cell culture flasks (Sarstedt), in a humidified atmosphere of CO2/air (5/95%) at 37 °C. MTT-based viability assay was conducted as described previously.[26] Optical densities were measured at 570 nm using a BioTek microplate reader. All measurements were carried out in three replicates and the results expressed as a percent of viable cells versus control cells. […] The selectivity index (SI) was calculated as [drawing 30] , in accordance with previously described protocols.[60]"}, "[2]": {"test_system": "S. aureus ATCC 6538P", "experiment": "Antibacterial activity: MIC/MBC determination and disc-diffusion", "type": "cell-based, Staphylococcus aureus", "conditions": "S. aureus ATCC 6538P", "procedure": "(§1) Direct antimicrobial activity was determined against the following standard strains: (1) Gram-positive cocci: methicillin-sensitive Staphylococcus aureus ATCC 6538P (MSSA), methicillin-resistant S. aureus subsp. aureus ATCC 43300 (MRSA), S. epidermidis ATCC 12228, Enterococcus faecium ATCC 6057, E. faecalis ATCC 29212, Bacillus subtilis ATCC 6633; (2) Gram-negative bacteria from Enterobacteriales order: Klebsiella pneumoniae ATCC 13883, Escherichia coli ATCC 25922, Enterobacter cloacae DSM 6234, Proteus mirabilis ATCC 12453, Serratia marcescens ATCC 13880; (3) Gram-negative non-fermentative rods: Acinetobacter baumannii ATCC 19606, Pseudomonas aeruginosa ATCC 27853, Stenotrophomonas maltophilia ATCC 12714, S. maltophilia ATCC 13637, Burkholderia cepacia ATCC 25416, Bordetella bronchiseptica ATCC 4617; (4) yeasts: Candida albicans ATCC 90028, C. krusei ATCC 6258, C. parapsilosis ATCC 22019, C. tropicalis (Castellani) Berkhout ATCC 750, C. tropicalis IBA 171, C. guilliermondii IBA 155, and Saccharomyces cerevisiae ATCC 9763. Moreover, 5 clinical strains of methicillin-resistant S. aureus were also included: NMI 664 K, NMI 1576 K, NMI 1712 K, NMI 1991 K, and NMI 2541 K. All strains were stored at −80 °C. Prior to testing, each bacterial strain was subcultured twice on tryptic soy agar TSA (bioMerieux) medium and yeast strains on Sabouraud dextrose agar (bioMerieux) for 24–48 h at 30 °C to ensure viability. The antimicrobial activity was evaluated as previously described[26] by the disc-diffusion method and the MIC determination assays according to the EUCAST (ref. [71] and [72]) and CLSI (ref. [53] and [73]) recommendations. Assessment of bactericidal (MBC) and fungicidal (MFC) activities was performed according to the CLSI recommendations.[54,74] The following reference agents were used: fluconazole (in the case of fungi), linezolid (for Gram-positive bacteria), and nitrofurantoin (for Gram-negative rods). The new benzosiloxaboroles were dissolved in DMSO (Sigma)."}, "[3]": {"test_system": "E. faecium ATCC 6057", "experiment": "Antibacterial activity: MIC/MBC determination and disc-diffusion", "type": "cell-based", "conditions": "Enterococcus faecium, ATCC6057, E. faecium ATCC 6057", "procedure": "as §1"}, "[4]": {"test_system": "S. aureus ATCC 43300 MRSA", "experiment": "Antibacterial activity: MIC/MBC determination and disc-diffusion", "type": "cell-based", "conditions": "Staphylococcus aureus, S. aureus ATCC 43300 MRSA", "procedure": "as §1"}, "[5]": {"test_system": "E. faecalis ATCC 29212", "experiment": "Antibacterial activity: MIC/MBC determination and disc-diffusion", "type": "cell-based", "conditions": "Enterococcus faecalis, ATCC29212, E. faecalis ATCC 29212", "procedure": "as §1"}, "[6]": {"test_system": "S. epidermidis ATCC 12228", "experiment": "Antibacterial activity: MIC/MBC determination and disc-diffusion", "type": "cell-based", "conditions": "Staphylococcus epidermidis, ATCC12228, S. epidermidis ATCC 12228", "procedure": "as §1"}, "[7]": {"test_system": "S. aureus NMI 1576 K MRSA", "experiment": "Antibacterial activity against clinical MRSA: MIC/MBC", "type": "cell-based", "conditions": "Staphylococcus aureus, NMI 1576 K MRSA", "procedure": "as §1"}, "[8]": {"test_system": "S. aureus NMI 1712 K MRSA", "experiment": "Antibacterial activity against clinical MRSA: MIC/MBC", "type": "cell-based", "conditions": "Staphylococcus aureus, NMI 1712 K MRSA", "procedure": "as §1"}, "[9]": {"test_system": "S. aureus NMI 664 K MRSA", "experiment": "Antibacterial activity against clinical MRSA: MIC/MBC", "type": "cell-based", "conditions": "Staphylococcus aureus, NMI 664 K MRSA", "procedure": "as §1"}, "[10]": {"test_system": "S. aureus NMI 1991 K MRSA", "experiment": "Antibacterial activity against clinical MRSA: MIC/MBC", "type": "cell-based", "conditions": "Staphylococcus aureus, NMI 1991 K MRSA", "procedure": "as §1"}, "[11]": {"test_system": "S. aureus NMI 2541 K MRSA", "experiment": "Antibacterial activity against clinical MRSA: MIC/MBC", "type": "cell-based", "conditions": "Staphylococcus aureus, NMI 2541 K MRSA", "procedure": "as §1"}, "[12]": {"target": "T1, S. aureus MRSA LeuRS (Staphylococcus aureus, UniProt P67513)", "T1 construct": "The LeuRS gene from MRSA (PW-71) was amplified by PCR; made in house; host or cells: E. coli BL21(DE3)pLys", "T1 sequence (P67513 whole entry)": "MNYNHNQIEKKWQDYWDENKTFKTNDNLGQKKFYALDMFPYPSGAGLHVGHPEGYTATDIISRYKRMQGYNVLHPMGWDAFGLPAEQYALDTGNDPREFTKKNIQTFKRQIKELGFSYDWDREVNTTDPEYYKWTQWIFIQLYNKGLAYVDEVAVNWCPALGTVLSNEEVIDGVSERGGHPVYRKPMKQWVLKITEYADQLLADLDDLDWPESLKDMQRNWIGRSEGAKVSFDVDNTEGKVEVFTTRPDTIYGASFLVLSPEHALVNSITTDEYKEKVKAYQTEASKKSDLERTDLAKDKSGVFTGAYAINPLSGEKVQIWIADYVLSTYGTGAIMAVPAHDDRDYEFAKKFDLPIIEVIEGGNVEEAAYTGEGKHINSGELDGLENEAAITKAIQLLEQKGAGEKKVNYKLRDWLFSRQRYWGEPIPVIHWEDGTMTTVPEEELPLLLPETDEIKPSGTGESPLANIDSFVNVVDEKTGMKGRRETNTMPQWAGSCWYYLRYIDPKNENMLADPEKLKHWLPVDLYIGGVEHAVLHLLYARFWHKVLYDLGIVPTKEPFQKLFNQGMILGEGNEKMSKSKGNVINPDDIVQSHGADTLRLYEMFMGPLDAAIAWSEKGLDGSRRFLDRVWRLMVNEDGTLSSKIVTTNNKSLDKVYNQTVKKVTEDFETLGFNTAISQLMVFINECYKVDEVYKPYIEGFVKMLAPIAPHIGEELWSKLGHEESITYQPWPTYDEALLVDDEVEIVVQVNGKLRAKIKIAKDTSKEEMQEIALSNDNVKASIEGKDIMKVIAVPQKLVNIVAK", "experiment": "In vitro aminoacylation (enzyme inhibition) assay", "type": "biochemical", "conditions": "read-out: residual activity of S. aureus MRSA LeuRS", "procedure": "We have undertaken research devoted to determining the most probable mechanism of antibacterial action. […] Considering structural similarity to benzoxaboroles we assumed that benzosiloxaboroles are active through this mechanism. Our working hypothesis was supported by the fact that benzosiloxaboroles are rather bacteriostatic than bactericidal,[26,27] which is consistent with the specificity of the OBORT mechanism. The enzyme inhibition assay was performed for compound 20 as it features high activity against S. aureus MRSA strains and the respective favorable SI = 19.5 (Table 5). […] We obtained S. aureus MRSA LeuRS in the E. coli expression system. From 400 mL culture, approximately 20 mg of 6× His tagged LeuRS (with a molecular mass of 92.3 kDa) was purified to more than 90% homogeneity, which was confirmed by sodium dodecylsulfate-polyacrylamide gel electrophoresis (SDS-PAGE; Fig. S2, ESI ^†). Next, we used an in vitro aminoacylation assay to investigate the ability of 20 to inhibit S. aureus MRSA LeuRS activity consistent with affecting the transfer of the ^14C-radiolabeled leucine to a total tRNA. […] (residual activity 30.8% at 25 μM).\nThe LeuRS gene from MRSA (PW-71) was amplified by PCR using the following primers: 5′-[…]-3′ and 5′-[…]-3′. The amplified leuRS was digested with BamHI and NotI and ligated into pETDuet-1 vector (Novagen) which carries an N-terminal His tag. After sequencing, the pETDuet1-leuRS plasmid was transformed into E. coli BL21(DE3)pLys cells, which were then grown overnight in 20 mL of Luria–Bertani (LB) medium containing 100 μg mL^−1 ampicillin and 30 μg mL^−1 chloramphenicol. Then the overnight culture was inoculated into 400 mL of Super Broth medium containing ampicillin and chloramphenicol at the same concentration, and the cells were grown until the OD600 reached 0.6. […] The protein concentration in the final solution was 2.86 mg mL^−1 (determined by the Bradford method and bovine serum albumin as a standard).[78] […]"}, "[13]": {"conditions": "read-out: MBC (first MBC where Eagle effect)"}},
  "data": [
    {"compound": "CC(=O)NC[C@H]1CN(c2ccc(N3CCOCC3)c(F)c2)C(=O)O1", "note": "[LIN, linezolid, reference compound]", "values": [
      {"measurement": "IC50", "setting": "[1]", "result": "> 400", "unit": "µg/mL"},
      {"measurement": "diameter of inhibition zone", "setting": "[2]; disc-diffusion, — = zone not observed", "result": 25, "unit": "mm"},
      {"measurement": "MBC", "setting": "[2]; Staphylococcus aureus, ATCC6538P, read-out: MBC (first MBC where Eagle effect)", "result": "> 128", "unit": "µg/mL"},
      {"measurement": "MIC", "setting": "[2]; Staphylococcus aureus, ATCC6538P, read-out: MIC", "result": 1, "unit": "µg/mL"},
      {"measurement": "MBC", "setting": "[3]", "result": "> 128", "unit": "µg/mL"},
      {"measurement": "MIC", "setting": "[3]; read-out: MIC", "result": 2, "unit": "µg/mL"},
      {"measurement": "MBC", "setting": "[4]; [13]", "result": "> 128", "unit": "µg/mL"},
      {"measurement": "MIC", "setting": "[4]; read-out: MIC", "result": 2, "unit": "µg/mL"},
      {"measurement": "MBC", "setting": "[5]", "result": "> 128", "unit": "µg/mL"},
      {"measurement": "MIC", "setting": "[5]; read-out: MIC", "result": 2, "unit": "µg/mL"},
      {"measurement": "MBC", "setting": "[6]", "result": "> 128", "unit": "µg/mL"},
      {"measurement": "MIC", "setting": "[6]; read-out: MIC", "result": 1, "unit": "µg/mL"},
      {"measurement": "MBC", "setting": "[7]; [13]", "result": "> 128", "unit": "µg/mL"},
      {"measurement": "MIC", "setting": "[7]; read-out: MIC", "result": 1, "unit": "µg/mL"},
      {"measurement": "MBC", "setting": "[8]; [13]", "result": "> 128", "unit": "µg/mL"},
      {"measurement": "MIC", "setting": "[8]; read-out: MIC", "result": 1, "unit": "µg/mL"},
      {"measurement": "MBC", "setting": "[9]; [13]", "result": "> 128", "unit": "µg/mL"},
      {"measurement": "MIC", "setting": "[9]; read-out: MIC", "result": 1, "unit": "µg/mL"},
      {"measurement": "MBC", "setting": "[10]; [13]", "result": "> 128", "unit": "µg/mL"},
      {"measurement": "MIC", "setting": "[10]; read-out: MIC", "result": 1, "unit": "µg/mL"},
      {"measurement": "MBC", "setting": "[11]; [13]", "result": "> 128", "unit": "µg/mL"},
      {"measurement": "MIC", "setting": "[11]; read-out: MIC", "result": 1, "unit": "µg/mL"}
    ]},
    {"compound": "Nc1ccc(S(=O)(=O)Nc2ccc3c(c2)B(O)OC3)cc1", "note": "[PT662, reference compound]", "values": [
      {"measurement": "remaining activity at 25 µM", "setting": "[12]", "result": 30.8, "unit": "%"}
    ]}
  ]
}
